Test results taken from patent US10085450B2, “Tetrazolinone compound and use thereof” (SUMITOMO CHEMICAL COMPANY, LIMITED, priority 2013, dated 2018).

What was measured:
[1] = tested on: common house mosquito (Culex pipiens pallens); experiment: whole plant or invertebrate; conditions: 24 h
Description: The test chemical solution (0.7 mL) was added to 100 mL of deionized water to thereby adjust the concentration of the active ingredient to 3.5 ppm. Twenty (20) heads of last instar larvae of common house mosquito (Culex pipiens pallens) were released in the solution. After 1 day, the number of the dead insects was counted.
Mortality was determined by the following equation. Mortality (%)=(number of dead insects/number of tested insects)×100

[2] = tested on: tomato late blight fungus (Phytophthora infestans); format: in vivo; conditions: 500 ppm water dilution sprayed on tomato (PATIO) seedling; spores inoculated after air-drying
[3] = tested on: rice blast fungus (Magnaporthe grisea); format: in vivo; conditions: 500 ppm water dilution sprayed on rice (NIHONBARE); contact with infected rice seedling for 6 days
[4] = tested on: diamondback moth (Plutella xylostella); experiment: Test Example 20: diamondback moth larvae mortality on sprayed cabbage; format: in vivo; conditions: 120 h
Description: Cabbage (cultivar: GREEN BALL) was sowed and grown in a polyethylene cup until the third to fourth true leaf was developed. The test chemical solution was sprayed over the cabbage at a rate of 20 mL per cup. After drying the chemical solution, the cabbage cut from the base was disposed in a polyethylene cup (5.5 cm in diameter) with a filter paper laid on the bottom. Five (5) heads of third-instar larvae of diamondback moth (Plutella xylostella) were released and then a lid was put on the cup. After storage at 25° C. for 5 days, the number of the surviving insects was counted and mortality was calculated by the following equation.

SMILES | mortality at 3.5 ppm [1] | mortality at 500 ppm [4] | also measured
Cc1cccc(-n2nnn(C)c2=O)c1COc1ccc(-c2ccc(Cl)cc2)s1 [present compound 15, 1-{2-[5-(4-chlorophenyl)thiophen-2-yloxymethyl]-3-methylphenyl}-4-methyl-1,4-dihydrotetrazol-5-one] | 95% |  | 
Cc1cccc(-n2nnn(C)c2=O)c1COc1nn(C)c(-c2ccc(Cl)cc2)c1C [present compound 29, 1-(2-{[1,4-dimethyl-5-(4-chlorophenyl)-1H-pyrazol-3-yloxy]methyl}-3-methylphenyl)-4-methyl-1,4-dihydrotetrazol-5-one] | 95% |  | 
Cc1cccc(-n2nnn(C)c2=O)c1COc1c(C)c(-c2ccccc2)nn1C [present compound 8] |  |  | area of lesion spots on the treated plant relative to that on an untreated plant [2]: ≤ 30%; lesion areas on the treated plant with respect to the lesion area on the non-treated plant [3]: ≤ 30%
Cc1cccc(-n2nnn(C)c2=O)c1COc1csc(-c2ccccc2)n1 [present compound 10] |  | ≥ 80% | 
Cc1cccc(-n2nnn(C)c2=O)c1COc1cc(-c2ccc(Cl)cc2)nn1C [present compound 4] |  | ≥ 80% | 
